Results on two molecules are retold here after patent US10273235B2, “Compositions and methods for inhibiting β-lactamase” (LegoChem Biosciences, Inc., priority 2015, dated 2019).

“And” between values parts separate entries of the source, which are not always exact repeats. Identical values can stand only once. Like-named read-outs stand apart in the source and are kept apart here. A value given as a limit tells only on which side of the number the result lay.

One assay deals with K. pneumoniae CL5761. The assay can be described thus: MIC of strain used for extraction of enzymes, K. pneumoniae CL5761 (KPC-3, TEM-216, SHV-5). Type of assay: cell-based. The following applies: for MIC: Klebsiella pneumoniae, CL5761. As to the method: (§1) MIC90 (μg/mL) is the lowest concentration of an antibiotic that will inhibit the visible growth of 90% of microorganisms after incubation as compared with a control group to which the antibiotic is not treated.
(§2) MIC values were measured by the broth microdilution method developed by the Clinical and Laboratory Standards Institute (CLSI) (see CLSI M07-A9, Methods for Dilution Antimicrobial Susceptibility Test for Bacteria that Grow Aerobically; Approved Standard-Ninth Edition (2012): CLSI, Villanova, Pa.). The in vitro antibacterial activity was measured with respect to the following 9 clinical isolates: P. aeruginosa (3 strains); K. pneumoniae (6 strains). The in vitro antibacterial activity of selected compounds was measured with respect to the following 15 clinical isolates: K. pneumoniae (15 strains).

The subject of a further assay is E. coli TOPDXA048. Put plainly: MIC of strain used for extraction of enzymes, E. coli TOPDXA048 (OXA-48, TEM-116, AmpC (NC_000913)). The assay is classed as cell-based. As to conditions: for MIC: Escherichia coli.
A further assay has as its system E. coli ECO200. Put plainly: MIC of strain used for extraction of enzymes, E. coli ECO200 (NDM-1, TEM-1, CTX-M-15, EC (AmpC), OXA-2 type). Type of assay: cell-based. As to conditions: for MIC: Escherichia coli.
A further assay relates to E. aerogenes K9911729. Put plainly: MIC of strain used for extraction of enzymes, E. aerogenes K9911729 (CMY-10, TEM-1, SHV-12, AmpC (DQ478697)). The assay is classed as cell-based. As to conditions: for MIC: Klebsiella aerogenes, K9911729.
A further assay concerns E. coli K0519020. The assay can be described thus: MIC of strain used for extraction of enzymes, E. coli K0519020 (CTX-M-15, TEM-1, OXA-1, AmpC (NC_000913)). The assay is classed as cell-based. The following applies: for MIC: Escherichia coli, K0519020.
In assay [1] the target is T1, CMY-10 β-lactamase (class C) (Klebsiella aerogenes, UniProt Q99QC1).
T1 construct: MICs of bacterial strains used for extraction of enzymes; endogenous in cells
Put plainly: Inhibitory activity against β-lactamases (nitrocefin), CMY-10. The assay is classed as biochemical. The procedure:
More diluted stocks were prepared as necessary. Enzyme activity was determined by monitoring the change of absorbance at 492 nm using the characteristic molecular extinction coefficient (Δε492=17,400 M^−1 cm^−1) of nitrocefin by a Shimazu UV-1650PC spectrophotometer. The nitrocefin was purchased from OXOID. Kinetic measurements were run at 30° C. in 10 mM MES[2-(N-morpholino)ethanesulfonic acid]buffer (pH 6.8) or 10 mM MES[2-(N-morpholino)ethanesulfonic acid] buffer (pH 6.8), […] BSA and 50 mM sodium bicarbonate. Reactions were performed in 2.5 mL cuvettes with 100 μM nitrocefin and initiated by adding 1.5 nM to 2.5 nM enzyme. The first 180 s of each reaction was used to measure initial rates. Data were evaluated using Microsoft Excel. Concentration dependent inhibition of enzyme was measured using different concentrations of inhibitors resulting from two-fold dilution series. Reaction progress at every concentration of inhibitor was measured in triplicates. IC50 values were calculated using 4-parameter log fits using XL Fit curve fitting software (www.idbs.com) for Excel using the following equation:
[formula] where y is the remaining enzyme activity (in %) and x is the corresponding concentration. he fitted IC50 parameter is the relative IC50, and is defined as the concentration giving a response half way between the fitted top (B) and bottom (A) of the curve.

A further assay concerns K. pneumoniae 5576. Put plainly: BLI potentiation MIC, K. pneumoniae 5576 (SHV-11, CMY-2, DHA-1, TEM-1). The assay is classed as cell-based. As to conditions: no BLI, incubation 19 h. The procedure:
as §1, §2

Another assay relates to K. pneumoniae ATCC700603. Put plainly: BLI potentiation MIC, K. pneumoniae ATCC700603 (SHV-3). As to conditions: no BLI, incubation 19 h. Type of assay: cell-based. The procedure: as §1, §2
The subject of the next assay is P. aeruginosa ARC3514. Put plainly: BLI potentiation MIC, P. aeruginosa ARC3514 (KPC-2, OprD−, AmpC). The assay is classed as cell-based. The following applies: Pseudomonas aeruginosa, ARC3514, 19 h, no BLI; incubation 19 h; read-out: MIC of Meropenem alone. As to the method: as §1, §2
The subject of a further assay is K. pneumoniae KU2. The assay can be described thus: BLI potentiation MIC, K. pneumoniae KU2. Type of assay: cell-based. As to conditions: Klebsiella pneumoniae, no BLI, incubation 19 h, read-out: MIC of Meropenem alone. The procedure: as §1, §2
A further assay has as its system P. aeruginosa ARC3506. The assay can be described thus: BLI potentiation MIC, P. aeruginosa ARC3506 (VEB-1, OXA-10, OprD−, AmpC). The assay is classed as cell-based. As to conditions: Pseudomonas aeruginosa, ARC3506; no BLI; incubation 19 h; read-out: MIC of Meropenem alone. The procedure:
as §1, §2

In another assay the test system is K. pneumoniae NDM-506. The assay can be described thus: BLI potentiation MIC, K. pneumoniae NDM-506. As to conditions: Klebsiella pneumoniae, NDM506; no BLI; incubation 19 h; read-out: MIC of Meropenem alone. The assay is classed as cell-based. As to the method: as §1, §2
For a further assay, the system named is K. pneumoniae 4248. The assay can be described thus: BLI potentiation MIC, K. pneumoniae 4248 (SHV-11, CTX-M-15, TEM-1, OXA-1). As to conditions: Klebsiella pneumoniae, 4248, 19 h, no BLI; incubation 19 h; read-out: MIC of Meropenem alone. The assay is classed as cell-based. As to the method: as §1, §2
The subject of another assay is K. pneumoniae 5216. Put plainly: BLI potentiation MIC, K. pneumoniae 5216 (TEM-1A). The assay is classed as cell-based. As to conditions: no BLI, incubation 19 h. As to the method: as §1, §2
For the next assay, the system named is K. pneumoniae 100. Put plainly: BLI potentiation MIC, K. pneumoniae 100. Type of assay: cell-based. The following applies: Klebsiella pneumoniae, 100; no BLI; incubation 19 h; read-out: MIC of Meropenem alone. The procedure: as §1, §2
The subject of the next assay is K. pneumoniae 6839. Put plainly: BLI potentiation MIC, K. pneumoniae 6839 (SHV-11, SHV-12, DHA-1). Type of assay: cell-based. As to conditions: no BLI, incubation 19 h. The procedure: as §1, §2
The next assay deals with K. pneumoniae 5117. Put plainly: BLI potentiation MIC, K. pneumoniae 5117 (SHV-11, TEM-1). The assay is classed as cell-based. As to conditions: no BLI, incubation 19 h. The procedure: as §1, §2
A further assay concerns K. pneumoniae MP14. Put plainly: BLI potentiation MIC, K. pneumoniae MP14. Type of assay: cell-based. As to conditions: no BLI, incubation 19 h. The procedure:
as §1, §2

For the next assay, the system named is K. pneumoniae 6540. Put plainly: BLI potentiation MIC, K. pneumoniae 6540. The assay is classed as cell-based. The following applies: no BLI, incubation 19 h. As to the method: as §1, §2
Another assay deals with K. pneumoniae 3784. Put plainly: BLI potentiation MIC, K. pneumoniae 3784 (SHV-11, SHV-12, DHA-1). The following applies: Klebsiella pneumoniae, 3784, 19 h, no BLI; incubation 19 h; read-out: MIC of Meropenem alone. Type of assay: cell-based. The procedure:
as §1, §2

For another assay, the system named is P. aeruginosa ATCC27853. The assay can be described thus: BLI potentiation MIC (broth microdilution), P. aeruginosa ATCC27853 (PoxB, AmpC). The assay is classed as cell-based. As to conditions: Pseudomonas aeruginosa, ATCC27853, 19 h, no BLI; incubation 19 h; read-out: MIC of Meropenem alone. As to the method: as §1, §2
For orientation: Dilution methods test growth across graded concentrations, often in twofold steps.

The next assay deals with K. pneumoniae 5971(KOX). The assay can be described thus: BLI potentiation MIC, K. pneumoniae 5971(KOX). The assay is classed as cell-based. The following applies: no BLI, incubation 19 h. The procedure: as §1, §2
In the next assay the test system is K. pneumoniae 4006. Put plainly: BLI potentiation MIC, K. pneumoniae 4006 (SHV-12, CTX-M-15, TEM-1, OXA-9). As to conditions: no BLI, incubation 19 h. The assay is classed as cell-based. The procedure: as §1, §2
For another assay, the system named is K. pneumoniae 101. Put plainly: BLI potentiation MIC, K. pneumoniae 101. Type of assay: cell-based. As to conditions: no BLI, incubation 19 h. The procedure: as §1, §2
The mark [2] stands for this setting: BLI: 4 ug/mL, read-out: MIC of LCB10-0200 with BLI.
The mark [3] stands for this setting: no BLI, read-out: MIC of Meropenem alone.

T1 sequence (Q99QC1 24-382): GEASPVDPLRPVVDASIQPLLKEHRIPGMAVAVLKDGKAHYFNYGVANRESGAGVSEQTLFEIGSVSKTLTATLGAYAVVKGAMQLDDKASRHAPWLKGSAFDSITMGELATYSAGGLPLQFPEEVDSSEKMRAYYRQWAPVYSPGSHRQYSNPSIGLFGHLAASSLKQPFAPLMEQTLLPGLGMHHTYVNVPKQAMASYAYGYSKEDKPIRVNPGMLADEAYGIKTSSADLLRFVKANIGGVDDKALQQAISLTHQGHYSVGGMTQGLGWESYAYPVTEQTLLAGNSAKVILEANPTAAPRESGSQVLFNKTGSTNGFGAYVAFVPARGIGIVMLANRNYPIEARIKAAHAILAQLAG

One may read the MIC as the lowest concentration that inhibits growth of the organism. Usually IC50 stands for the point on the concentration scale where inhibition reaches its midpoint. Low values mean greater potency in that assay, high ones weaker potency in that assay. For `NC(=O)[C@@H]1CC[C@@H]2CN1C(=O)N2OS(=O)(=O)O` [Avibactam], the “MIC of Meropenem with BLI” value is 1 µg/mL in the assay with K. pneumoniae CL5761 (BLI: 4 ug/mL); 0.5 µg/mL with E. coli TOPDXA048 (BLI: 4 ug/mL); more than 64 µg/mL in the assay on E. coli ECO200 (BLI: 4 ug/mL); 0.5 µg/mL in the assay on E. aerogenes K9911729 (BLI: 4 ug/mL); 0.25 µg/mL with E. coli K0519020 (BLI: 4 ug/mL). Further, the MIC with K. pneumoniae CL5761 (setting [2]) was 16 µg/mL; in the assay with E. coli TOPDXA048 (TOPDXA048, read-out: MIC of LCB10-0200 with BLI), 0.25 µg/mL; with E. coli ECO200 (ECO200, read-out: MIC of LCB10-0200 with BLI), more than 64 µg/mL; in the assay with E. aerogenes K9911729 (setting [2]), 2 µg/mL; with E. coli K0519020 (setting [2]), 0.25 µg/mL. Also, in assay [1], the IC50 came out at 13 nM.
With `C[C@@H](O)[C@H]1C(=O)N2C(C(=O)O)=C(S[C@@H]3CN[C@H](C(=O)N(C)C)C3)[C@H](C)[C@H]12` [Meropenem], the MIC in the assay on K. pneumoniae 5576 (Klebsiella pneumoniae, 5576, 19 h, read-out: MIC of Meropenem alone) is 1 µg/mL; in the assay on K. pneumoniae ATCC700603 (Klebsiella pneumoniae, ATCC700603, 19 h, read-out: MIC of Meropenem alone), 0.125 µg/mL; in the assay with K. pneumoniae CL5761 (setting [3]), more than 64 µg/mL; with P. aeruginosa ARC3514, more than 64 µg/mL; in the assay on K. pneumoniae KU2, more than 64 µg/mL; with E. coli TOPDXA048 (TOPDXA048, read-out: MIC of Meropenem alone), 0.25 µg/mL. Also, the MIC is more than 64 µg/mL in the assay on E. coli ECO200 (ECO200, read-out: MIC of Meropenem alone); 64 µg/mL in the assay with P. aeruginosa ARC3506; more than 64 µg/mL in the assay on K. pneumoniae NDM-506; 0.5 µg/mL in the assay with E. aerogenes K9911729 (setting [3]); 0.125 µg/mL with K. pneumoniae 4248; 64 µg/mL with K. pneumoniae 5216 (Klebsiella pneumoniae, 5216, 19 h, read-out: MIC of Meropenem alone). Besides, the MIC is 4 µg/mL with K. pneumoniae 100; 4 µg/mL in the assay on K. pneumoniae 6839 (Klebsiella pneumoniae, 6839, 19 h, read-out: MIC of Meropenem alone); 8 µg/mL in the assay with K. pneumoniae 5117 (Klebsiella pneumoniae, 5117, 19 h, read-out: MIC of Meropenem alone); more than 64 µg/mL in the assay on K. pneumoniae MP14 (Klebsiella pneumoniae, MP14, 19 h, read-out: MIC of Meropenem alone); 1 µg/mL in the assay with K. pneumoniae 6540 (Klebsiella pneumoniae, 6540, 19 h, read-out: MIC of Meropenem alone); 2 µg/mL in the assay with K. pneumoniae 3784. Besides, the MIC is 1 µg/mL with E. coli K0519020 (setting [3]); 2 µg/mL with P. aeruginosa ATCC27853; 64 µg/mL in the assay on K. pneumoniae 5971(KOX) (Klebsiella pneumoniae, 19 h, read-out: MIC of Meropenem alone); 0.5 µg/mL in the assay on K. pneumoniae 4006 (Klebsiella pneumoniae, 4006, 19 h, read-out: MIC of Meropenem alone); more than 64 µg/mL in the assay on K. pneumoniae 101 (Klebsiella pneumoniae, 101, 19 h, read-out: MIC of Meropenem alone). Moreover, the “MIC of Meropenem alone” value in the assay on K. pneumoniae 5576 is 2 µg/mL; in the assay with K. pneumoniae ATCC700603, 0.25 µg/mL; in the assay on K. pneumoniae 5216, 32 µg/mL; with K. pneumoniae 6839 it was 2 µg/mL; with K. pneumoniae 5117 it was 4 µg/mL; in the assay on K. pneumoniae MP14, 64 µg/mL. Further, the “MIC of Meropenem alone” value with K. pneumoniae 6540 is 0.5 µg/mL; in the assay on K. pneumoniae 5971(KOX), 32 µg/mL; with K. pneumoniae 4006 it was 1 µg/mL; with K. pneumoniae 101, 64 µg/mL and 32 µg/mL.
